Holding throughout (assay): Test B pre-/postemergence plant response
Holding throughout (assay type): in vivo

Assay [1] has as its system barnyardgrass (Echinochloa crus-galli). The following applies: Echinochloa crus-galli, 240 h, read-out: Plant response rating, Barnyardgrass; for pest or weed control at 125 g/ha: 125 g ai/ha; for pest or weed control at 500 g/ha: 500 g ai/ha; for pest or weed control at 1000 g/ha: 1000 g ai/ha. The method, boiled down:
(§1)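 Visual injury rating, 0 (no effect) to 100 (complete control), vs untreated controls after ~10 d greenhouse. Pre: directed soil spray after planting in loam/sand. Post: plants 2–10 cm, 1–2 leaf stage. Compound in non-phytotoxic solvent plus surfactant.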

The subject of another assay is corn (Zea mays). To be noted: Zea mays, 240 h; for Corn plant response rating (crop injury, 0 = no effect, 100 = complete kill) at 125 g/ha: 125 g ai/ha; for Corn plant response rating (crop injury, 0 = no effect, 100 = complete kill) at 500 g/ha: 500 g ai/ha; for Corn plant response rating (crop injury, 0 = no effect, 100 = complete kill) at 1000 g/ha: 1000 g ai/ha. The method, boiled down: as §1

Assay [2] deals with giant foxtail (Setaria faberii). To be noted: Setaria faberi, 240 h, read-out: Plant response rating, Foxtail, Giant; for pest or weed control at 125 g/ha: 125 g ai/ha; for pest or weed control at 500 g/ha: 500 g ai/ha; for pest or weed control at 1000 g/ha: 1000 g ai/ha. The essentials:
as §1

In assay [3] the test system is pigweed (Amaranthus retroflexus). The following applies: Amaranthus retroflexus, 240 h, read-out: Plant response rating, Pigweed; for pest or weed control at 125 g/ha: 125 g ai/ha; for pest or weed control at 500 g/ha: 500 g ai/ha; for pest or weed control at 1000 g/ha: 1000 g ai/ha. The method, boiled down:
as §1

Assay [4] relates to wheat (Triticum aestivum). To be noted: Triticum aestivum, 240 h, read-out: Plant response rating, Wheat; for plant injury at 125 g/ha: 125 g ai/ha; for plant injury at 500 g/ha: 500 g ai/ha; for plant injury at 1000 g/ha: 1000 g ai/ha. The essentials: as §1
Where [5] appears, read: post-emergence, postemergence, 0 to 100 scale, 0 no effect, 100 complete control.
Setting [6] is: post-emergence, Postemergence, 0 to 100 scale (0 no effect, 100 complete control).
Where [7] appears, read: pre-emergence, Preemergence, 0 to 100 scale where 0 is no effect and 100 is complete control.
Where [8] appears, read: pre-emergence, Preemergence, 0 to 100 scale (0 no effect, 100 complete control).

Read-outs that look alike come from different tables or passages of the source.

Consider `Clc1ccc(-c2c(Cl)cccc2Oc2ncc(Cl)cn2)nc1` [Compound 23, 5-chloro-2-[3-chloro-2-(5-chloro-2-pyridinyl)phenoxy]pyrimidine], for which the pest or weed control at 125 g/ha was determined as 0% in assay [1] (setting [5]); 0% in assay [1] (setting [7]); 10% in assay [2] (setting [5]); 20% in assay [2] (setting [7]); 70% in assay [3] (setting [5]); 50% in assay [3] (setting [7]). Besides, the pest or weed control at 500 g/ha in assay [1] (setting [6]) was found to be 50%; in assay [1] (setting [8]) it was 30%; in assay [2] (setting [6]), 70%; in assay [2] (setting [8]) it was 70%; in assay [3] (setting [6]) it was 100%; in assay [3] (setting [8]) it was 90%. The pest or weed control at 1000 g/ha in assay [1] (setting [6]) is 50%; in assay [1] (setting [8]), 40%; in assay [2] (setting [6]), 70%; in assay [2] (setting [8]), 100%; in assay [3] (setting [6]), 100%; in assay [3] (setting [8]) it was 100%. Besides, the Corn plant response rating (crop injury, 0 = no effect, 100 = complete kill) at 125 g/ha in the assay with corn (Zea mays) (setting [5]) came to 10%; with corn (Zea mays) (setting [7]) it was 0%. Further, the results for the Corn plant response rating (crop injury, 0 = no effect, 100 = complete kill) at 500 g/ha in the assay on corn (Zea mays) (setting [6]) and in the assay on corn (Zea mays) (setting [8]) were 20% and 0%, respectively. The Corn plant response rating (crop injury, 0 = no effect, 100 = complete kill) at 1000 g/ha in the assay with corn (Zea mays) (setting [6]) came out at 20%; in the assay on corn (Zea mays) (setting [8]) it was 0%. Moreover, the plant injury at 125 g/ha in assay [4] (setting [5]) and in assay [4] (setting [7]) was 0% in each case. Further, the plant injury at 500 g/ha in assay [4] (setting [6]) and in assay [4] (setting [8]) was 0% throughout. The plant injury at 1000 g/ha in assay [4] (setting [6]) and in assay [4] (setting [8]) was 0% each time.

On to `FC(F)(F)c1nccc(-c2ccccc2Oc2ncc(Br)cn2)n1` [Compound 21, 4-[2-[(5-bromo-2-pyrimidinyl)oxy]phenyl]-2-(trifluoromethyl)pyrimidine], for which the pest or weed control at 125 g/ha in assay [1] (setting [5]) came out at 0%; in assay [1] (setting [7]), 0%; in assay [2] (setting [5]), 0%; in assay [2] (setting [7]) it was 70%; in assay [3] (setting [5]), 80%; in assay [3] (setting [7]), 30%. Also, the pest or weed control at 500 g/ha was 60% in assay [1] (setting [6]); 50% in assay [1] (setting [8]); 60% in assay [2] (setting [6]); 100% in assay [2] (setting [8]); 100% in assay [3] (setting [6]); 90% in assay [3] (setting [8]). In addition, the Corn plant response rating (crop injury, 0 = no effect, 100 = complete kill) at 125 g/ha in the assay with corn (Zea mays) (setting [5]) and in the assay with corn (Zea mays) (setting [7]) was 0% in each case. The Corn plant response rating (crop injury, 0 = no effect, 100 = complete kill) at 500 g/ha in the assay with corn (Zea mays) (setting [6]) came out at 40%; with corn (Zea mays) (setting [8]), 0%. In addition, the plant injury at 125 g/ha in assay [4] (setting [5]) and in assay [4] (setting [7]) was 0% each time. Also, the plant injury at 500 g/ha in assay [4] (setting [6]) and in assay [4] (setting [8]) was 0% in each case.

For the compound `FC(F)(F)c1ccnc(-c2ccccc2Oc2ncc(Cl)cn2)c1` [Compound 25, 5-chloro-2-[2-[4-(trifluoromethyl)-2-pyridinyl]phenoxy]pyrimidine], the pest or weed control at 125 g/ha in assay [1] (setting [5]) turned out to be 0%; in assay [1] (setting [7]) it was 10%; in assay [2] (setting [5]), 0%; in assay [2] (setting [7]) it was 40%; in assay [3] (setting [5]), 30%; in assay [3] (setting [7]), 60%. Also, the pest or weed control at 500 g/ha amounted to 30% in assay [1] (setting [6]); 70% in assay [1] (setting [7]); 60% in assay [2] (setting [6]); 90% in assay [2] (setting [7]); 90% in assay [3] (setting [6]); 100% in assay [3] (setting [7]). For the same compound, the Corn plant response rating (crop injury, 0 = no effect, 100 = complete kill) at 125 g/ha with corn (Zea mays) (setting [5]) was determined as 10%; in the assay on corn (Zea mays) (setting [7]), 0%. Further, the Corn plant response rating (crop injury, 0 = no effect, 100 = complete kill) at 500 g/ha in the assay with corn (Zea mays) (setting [6]) amounted to 30%; with corn (Zea mays) (setting [7]), 0%. The plant injury at 125 g/ha in assay [4] (setting [5]) and in assay [4] (setting [7]) was 0% in each case. Further, the results for the plant injury at 500 g/ha in assay [4] (setting [6]) and in assay [4] (setting [7]) were 10% and 0%, respectively.

Values taken from patent publication US10131652B2, “Pyrimidinyloxy benzene derivatives as herbicides” (E. I. DU PONT DE NEMOURS AND COMPANY, priority 2014, dated 2018).
